Data published in the kinase profiling compilation of Christmann-Franck et al. (2016).

Assays:
Assay in all cases: KINOMEscan competition binding
Conditions in all cases: compound 10.0 µM
CAMK4 (human) = CAMK4 (human) (UniProt Q16566)
DYRK2 (human) = DYRK2 (human) (UniProt Q92630)
SNRK (human) = SNRK (human) (UniProt Q9NRH2)
STK32C (human) = STK32C (human) (UniProt Q86UX6)
NEK2 (human) = NEK2 (human) (UniProt P51955)
MUSK (human) = MUSK (human) (UniProt O15146)
BMX (human) = BMX (human) (UniProt P51813)
LRRK2 (human) = LRRK2 (human) (UniProt Q5S007)
MAP2K1 (human) = MAP2K1 (human) (UniProt Q02750)
Chain of MAP2K1 (human) (Q02750 whole entry, looked up): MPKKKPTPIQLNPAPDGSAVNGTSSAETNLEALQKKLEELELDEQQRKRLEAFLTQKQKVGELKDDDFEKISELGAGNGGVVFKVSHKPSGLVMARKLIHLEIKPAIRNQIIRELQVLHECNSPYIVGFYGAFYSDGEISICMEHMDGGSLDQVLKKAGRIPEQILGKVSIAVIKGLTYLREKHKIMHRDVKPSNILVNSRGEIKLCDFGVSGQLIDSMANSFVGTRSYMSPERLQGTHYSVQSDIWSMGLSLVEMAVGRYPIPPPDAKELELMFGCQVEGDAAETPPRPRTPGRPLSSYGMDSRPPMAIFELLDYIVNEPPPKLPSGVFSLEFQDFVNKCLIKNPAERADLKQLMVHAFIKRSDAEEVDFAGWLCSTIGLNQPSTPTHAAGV

ALK (human) = ALK (human) (UniProt Q9UM73)
CDKL1 (human) = CDKL1 (human) (UniProt Q00532)
Chain of CDKL1 (human) (Q00532 whole entry, looked up): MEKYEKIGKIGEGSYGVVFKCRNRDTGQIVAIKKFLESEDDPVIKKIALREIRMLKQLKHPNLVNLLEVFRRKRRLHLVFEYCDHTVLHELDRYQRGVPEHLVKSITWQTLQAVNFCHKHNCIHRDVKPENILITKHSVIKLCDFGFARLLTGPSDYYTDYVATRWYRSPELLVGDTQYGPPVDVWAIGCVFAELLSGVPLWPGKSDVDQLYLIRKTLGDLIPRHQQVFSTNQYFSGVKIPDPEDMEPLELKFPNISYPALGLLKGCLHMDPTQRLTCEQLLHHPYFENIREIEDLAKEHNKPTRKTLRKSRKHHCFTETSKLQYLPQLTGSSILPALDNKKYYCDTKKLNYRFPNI

INSR (human) = INSR (human) (UniProt P06213)
CSNK2A1 (human) = CSNK2A1 (human) (UniProt P68400)
CLK3 (human) = CLK3 (human) (UniProt P49761)
RPS6KA4 KD2 (human) = RPS6KA4 KD2 (human) (UniProt O75676)
STK32A (human) = STK32A (human) (UniProt Q8WU08)
CSK (human) = CSK (human) (UniProt P41240)
RET (human) = RET (human) (UniProt P07949)
PLK4 (human) = PLK4 (human) (UniProt O00444)
INSRR (human) = INSRR (human) (UniProt P14616)
EPHB1 (human) = EPHB1 (human) (UniProt P54762)
PAK1 (human) = PAK1 (human) (UniProt Q13153)
Chain of PAK1 (human) (Q13153 whole entry, looked up): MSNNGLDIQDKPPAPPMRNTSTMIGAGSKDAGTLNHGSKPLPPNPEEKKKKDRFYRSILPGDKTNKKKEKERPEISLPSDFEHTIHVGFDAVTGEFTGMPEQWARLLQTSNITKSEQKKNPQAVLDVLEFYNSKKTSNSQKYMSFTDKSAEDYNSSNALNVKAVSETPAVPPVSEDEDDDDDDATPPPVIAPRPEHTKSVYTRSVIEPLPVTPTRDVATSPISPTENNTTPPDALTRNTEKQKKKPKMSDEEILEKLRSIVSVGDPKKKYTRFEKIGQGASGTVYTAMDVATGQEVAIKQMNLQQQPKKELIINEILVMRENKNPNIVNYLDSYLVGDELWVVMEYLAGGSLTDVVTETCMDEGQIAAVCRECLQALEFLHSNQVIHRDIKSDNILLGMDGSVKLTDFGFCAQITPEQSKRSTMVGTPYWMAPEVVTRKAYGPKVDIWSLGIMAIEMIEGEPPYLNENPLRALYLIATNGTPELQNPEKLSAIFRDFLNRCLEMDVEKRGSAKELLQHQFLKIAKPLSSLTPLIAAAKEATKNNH

ERBB2 (human) = ERBB2 (human) (UniProt P04626)
AKT3 (human) = AKT3 (human) (UniProt Q9Y243)
Chain of AKT3 (human) (Q9Y243 whole entry, looked up): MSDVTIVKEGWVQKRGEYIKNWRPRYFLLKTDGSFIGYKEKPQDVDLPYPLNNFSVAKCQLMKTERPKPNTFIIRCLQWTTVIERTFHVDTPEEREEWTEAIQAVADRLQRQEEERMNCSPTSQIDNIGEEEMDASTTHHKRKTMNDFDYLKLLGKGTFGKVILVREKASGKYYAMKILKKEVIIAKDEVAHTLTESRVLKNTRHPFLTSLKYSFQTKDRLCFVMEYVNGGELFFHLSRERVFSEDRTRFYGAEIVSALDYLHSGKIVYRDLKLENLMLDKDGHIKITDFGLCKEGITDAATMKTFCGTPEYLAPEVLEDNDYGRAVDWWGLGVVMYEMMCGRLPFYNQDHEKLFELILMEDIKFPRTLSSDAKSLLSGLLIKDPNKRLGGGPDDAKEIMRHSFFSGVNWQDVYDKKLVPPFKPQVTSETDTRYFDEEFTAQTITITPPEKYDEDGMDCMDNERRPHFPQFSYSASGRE

[1] = target: TYK2 JH2 pseudokinase (human) (UniProt P29597)
MAP2K7 (human) = MAP2K7 (human) (UniProt O14733)
TNIK (human) = TNIK (human) (UniProt Q9UKE5)
IRAK1 (human) = IRAK1 (human) (UniProt P51617)
[2] = tested on: PIK3CA (human), P42336 [C420R]
CRK2 (P.falciparum) = CRK2 (P.falciparum) (UniProt P61075)
Chain of CRK2 (P.falciparum) (P61075 whole entry, looked up): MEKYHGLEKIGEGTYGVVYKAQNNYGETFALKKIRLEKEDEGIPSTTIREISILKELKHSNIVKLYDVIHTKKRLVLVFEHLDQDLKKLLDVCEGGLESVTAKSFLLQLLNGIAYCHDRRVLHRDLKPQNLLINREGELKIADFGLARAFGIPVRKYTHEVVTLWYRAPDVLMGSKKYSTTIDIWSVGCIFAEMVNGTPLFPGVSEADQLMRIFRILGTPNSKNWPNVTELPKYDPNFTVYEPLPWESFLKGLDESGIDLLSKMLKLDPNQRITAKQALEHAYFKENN

TNK2 (human) = TNK2 (human) (UniProt Q07912)
PRKG1 (human) = PRKG1 (human) (UniProt Q13976)
MYO3A (human) = MYO3A (human) (UniProt Q8NEV4)
EIF2AK1 (human) = EIF2AK1 (human) (UniProt Q9BQI3)
STK38 (human) = STK38 (human) (UniProt Q15208)
RPS6KA2 KD1 (human) = RPS6KA2 KD1 (human) (UniProt Q15349)
OXSR1 (human) = OXSR1 (human) (UniProt O95747)
Chain of OXSR1 (human) (O95747 whole entry, looked up): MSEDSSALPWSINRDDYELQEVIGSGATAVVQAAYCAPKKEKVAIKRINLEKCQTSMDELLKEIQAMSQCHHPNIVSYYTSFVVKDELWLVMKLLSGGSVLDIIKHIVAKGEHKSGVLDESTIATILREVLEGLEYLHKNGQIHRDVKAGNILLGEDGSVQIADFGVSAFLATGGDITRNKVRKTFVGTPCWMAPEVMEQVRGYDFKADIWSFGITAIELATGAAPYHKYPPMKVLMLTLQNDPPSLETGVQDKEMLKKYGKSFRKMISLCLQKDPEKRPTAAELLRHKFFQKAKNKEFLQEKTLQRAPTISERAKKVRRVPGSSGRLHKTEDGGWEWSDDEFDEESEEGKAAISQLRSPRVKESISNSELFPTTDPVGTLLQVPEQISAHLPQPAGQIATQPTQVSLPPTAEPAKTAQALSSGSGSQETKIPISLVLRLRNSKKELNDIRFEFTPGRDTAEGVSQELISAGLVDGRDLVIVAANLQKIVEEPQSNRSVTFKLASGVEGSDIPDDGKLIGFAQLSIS

TXK (human) = TXK (human) (UniProt P42681)
MERTK (human) = MERTK (human) (UniProt Q12866)
Chain of MERTK (human) (Q12866 whole entry, looked up): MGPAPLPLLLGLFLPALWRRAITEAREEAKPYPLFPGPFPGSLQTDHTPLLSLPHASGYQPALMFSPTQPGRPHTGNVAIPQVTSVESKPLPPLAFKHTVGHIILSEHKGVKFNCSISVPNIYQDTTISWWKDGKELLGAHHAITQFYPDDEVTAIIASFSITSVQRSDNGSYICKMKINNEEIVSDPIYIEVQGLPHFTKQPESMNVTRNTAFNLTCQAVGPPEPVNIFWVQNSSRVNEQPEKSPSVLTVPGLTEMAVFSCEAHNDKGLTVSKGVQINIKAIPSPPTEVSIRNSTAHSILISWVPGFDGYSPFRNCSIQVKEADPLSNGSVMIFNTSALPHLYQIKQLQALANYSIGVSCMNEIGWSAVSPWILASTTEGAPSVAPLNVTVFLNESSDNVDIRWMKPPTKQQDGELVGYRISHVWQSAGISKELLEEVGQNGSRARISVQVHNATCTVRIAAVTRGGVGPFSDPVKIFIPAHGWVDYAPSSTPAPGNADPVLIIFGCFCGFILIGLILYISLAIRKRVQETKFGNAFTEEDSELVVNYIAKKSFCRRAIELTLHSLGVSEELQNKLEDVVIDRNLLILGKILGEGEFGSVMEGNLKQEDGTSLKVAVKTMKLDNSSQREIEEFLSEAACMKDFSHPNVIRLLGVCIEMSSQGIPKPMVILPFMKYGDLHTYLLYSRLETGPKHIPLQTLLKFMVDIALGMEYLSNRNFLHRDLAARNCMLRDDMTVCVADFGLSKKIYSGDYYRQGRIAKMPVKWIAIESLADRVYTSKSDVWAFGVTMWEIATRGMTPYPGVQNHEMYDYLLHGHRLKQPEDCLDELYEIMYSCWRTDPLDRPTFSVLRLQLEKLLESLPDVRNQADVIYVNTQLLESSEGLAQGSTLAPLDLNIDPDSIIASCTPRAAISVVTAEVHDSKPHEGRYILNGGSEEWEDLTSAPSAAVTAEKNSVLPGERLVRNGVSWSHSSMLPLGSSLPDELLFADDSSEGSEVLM

CDKL5 (human) = CDKL5 (human) (UniProt O76039)
Chain of CDKL5 (human) (O76039 whole entry, looked up): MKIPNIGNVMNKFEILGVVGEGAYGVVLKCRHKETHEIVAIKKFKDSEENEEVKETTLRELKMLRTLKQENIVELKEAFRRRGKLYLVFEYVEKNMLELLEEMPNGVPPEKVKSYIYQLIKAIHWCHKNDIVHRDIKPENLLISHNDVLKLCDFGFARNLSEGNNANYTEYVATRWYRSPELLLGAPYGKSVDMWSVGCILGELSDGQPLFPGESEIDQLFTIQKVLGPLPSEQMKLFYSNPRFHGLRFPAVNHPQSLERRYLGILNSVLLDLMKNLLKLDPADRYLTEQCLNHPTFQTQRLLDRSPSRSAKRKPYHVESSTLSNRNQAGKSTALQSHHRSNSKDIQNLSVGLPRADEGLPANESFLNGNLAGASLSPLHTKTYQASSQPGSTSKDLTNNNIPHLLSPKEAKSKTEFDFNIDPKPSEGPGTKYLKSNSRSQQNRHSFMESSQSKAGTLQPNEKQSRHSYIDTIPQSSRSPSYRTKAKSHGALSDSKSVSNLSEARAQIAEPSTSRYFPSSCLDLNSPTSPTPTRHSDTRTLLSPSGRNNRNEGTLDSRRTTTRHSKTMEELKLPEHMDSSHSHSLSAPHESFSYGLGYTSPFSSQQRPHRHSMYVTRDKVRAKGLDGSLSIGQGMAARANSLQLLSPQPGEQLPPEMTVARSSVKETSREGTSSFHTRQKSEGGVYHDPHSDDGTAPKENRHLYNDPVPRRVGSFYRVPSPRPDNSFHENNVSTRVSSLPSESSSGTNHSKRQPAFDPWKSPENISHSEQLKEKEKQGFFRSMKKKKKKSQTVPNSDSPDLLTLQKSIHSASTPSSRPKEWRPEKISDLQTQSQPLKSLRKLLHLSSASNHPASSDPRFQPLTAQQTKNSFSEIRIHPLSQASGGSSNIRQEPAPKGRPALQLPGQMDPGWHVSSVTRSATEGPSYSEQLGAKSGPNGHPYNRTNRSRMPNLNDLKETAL

FER (human) = FER (human) (UniProt P16591)

Chain of CAMK4 (human) (Q16566 whole entry, looked up): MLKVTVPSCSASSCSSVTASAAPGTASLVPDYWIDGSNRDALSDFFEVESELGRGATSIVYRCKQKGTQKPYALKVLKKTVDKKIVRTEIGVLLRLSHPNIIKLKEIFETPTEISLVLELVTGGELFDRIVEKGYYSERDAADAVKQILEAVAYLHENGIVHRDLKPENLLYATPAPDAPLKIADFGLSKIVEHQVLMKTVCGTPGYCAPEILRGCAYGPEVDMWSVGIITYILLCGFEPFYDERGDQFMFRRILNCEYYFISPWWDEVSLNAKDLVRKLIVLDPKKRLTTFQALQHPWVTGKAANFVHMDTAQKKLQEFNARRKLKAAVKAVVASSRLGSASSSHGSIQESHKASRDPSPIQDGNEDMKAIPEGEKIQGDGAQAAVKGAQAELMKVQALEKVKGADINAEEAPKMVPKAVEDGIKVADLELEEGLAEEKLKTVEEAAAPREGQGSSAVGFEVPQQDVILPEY

COC(=O)Nc1ccc(-c2nc(N3CCOCC3)c3cnn(C4CCN(C(=O)OC)CC4)c3n2)cc1
kinase still bound, per cent of control (CAMK4 (human)): 100% | kinase still bound, per cent of control (DYRK2 (human)): 82% | kinase still bound, per cent of control (SNRK (human)): 100% | kinase still bound, per cent of control (STK32C (human)): 89% | kinase still bound, per cent of control (NEK2 (human)): 100% | kinase still bound, per cent of control (MUSK (human)): 100% | kinase still bound, per cent of control (BMX (human)): 94% | kinase still bound, per cent of control (LRRK2 (human)): 91% | kinase still bound, per cent of control (MAP2K1 (human)): 100% | kinase still bound, per cent of control (ALK (human)): 100% | per cent of control (CDKL1 (human)): 91% | kinase still bound, per cent of control (INSR (human)): 72% | kinase still bound, per cent of control (CSNK2A1 (human)): 62% | kinase still bound, per cent of control (CLK3 (human)): 100% | kinase still bound, per cent of control (RPS6KA4 KD2 (human)): 88% | kinase still bound, per cent of control (STK32A (human)): 100% | kinase still bound, per cent of control (CSK (human)): 98% | kinase still bound, per cent of control (RET (human)): 93% | kinase still bound, per cent of control (PLK4 (human)): 100% | kinase still bound, per cent of control (INSRR (human)): 100% | kinase still bound, per cent of control (EPHB1 (human)): 100% | kinase still bound, per cent of control (PAK1 (human)): 95% | kinase still bound, per cent of control (ERBB2 (human)): 100% | kinase still bound, per cent of control (AKT3 (human)): 100% | kinase still bound, per cent of control [1]: 78% | kinase still bound, per cent of control (MAP2K7 (human)): 100% | kinase still bound, per cent of control (TNIK (human)): 95% | kinase still bound, per cent of control (IRAK1 (human)): 100% | kinase still bound, per cent of control [2]: 3% | kinase still bound, per cent of control (CRK2 (P.falciparum)): 95% | kinase still bound, per cent of control (TNK2 (human)): 100% | kinase still bound, per cent of control (PRKG1 (human)): 100% | kinase still bound, per cent of control (MYO3A (human)): 100% | kinase still bound, per cent of control (EIF2AK1 (human)): 56% | kinase still bound, per cent of control (STK38 (human)): 88% | kinase still bound, per cent of control (RPS6KA2 KD1 (human)): 100% | kinase still bound, per cent of control (OXSR1 (human)): 90% | kinase still bound, per cent of control (TXK (human)): 92% | kinase still bound, per cent of control (MERTK (human)): 100% | per cent of control (CDKL5 (human)): 100% | kinase still bound, per cent of control (FER (human)): 100%

CC(C)n1nc(-c2cc3cc(O)ccc3[nH]2)c2c(N)ncnc21
kinase still bound, per cent of control (CAMK4 (human)): 100% | kinase still bound, per cent of control (DYRK2 (human)): 1.4% | kinase still bound, per cent of control (SNRK (human)): 100% | kinase still bound, per cent of control (STK32C (human)): 69% | kinase still bound, per cent of control (NEK2 (human)): 75% | kinase still bound, per cent of control (MUSK (human)): 100% | kinase still bound, per cent of control (LRRK2 (human)): 4.8% | kinase still bound, per cent of control (MAP2K1 (human)): 0.25% | kinase still bound, per cent of control (ALK (human)): 41% | per cent of control (CDKL1 (human)): 100% | kinase still bound, per cent of control (INSR (human)): 100% | kinase still bound, per cent of control (CSNK2A1 (human)): 16% | kinase still bound, per cent of control (CLK3 (human)): 66% | kinase still bound, per cent of control (RPS6KA4 KD2 (human)): 0% | kinase still bound, per cent of control (STK32A (human)): 1.8% | kinase still bound, per cent of control (CSK (human)): 15% | kinase still bound, per cent of control (RET (human)): 0% | kinase still bound, per cent of control (PLK4 (human)): 2.6% | kinase still bound, per cent of control (INSRR (human)): 100% | kinase still bound, per cent of control (EPHB1 (human)): 49% | kinase still bound, per cent of control (PAK1 (human)): 52% | kinase still bound, per cent of control (ERBB2 (human)): 29% | kinase still bound, per cent of control (AKT3 (human)): 29% | kinase still bound, per cent of control [1]: 2.6% | kinase still bound, per cent of control (MAP2K7 (human)): 75% | kinase still bound, per cent of control (TNIK (human)): 2.4% | kinase still bound, per cent of control (IRAK1 (human)): 25% | kinase still bound, per cent of control (CRK2 (P.falciparum)): 93% | kinase still bound, per cent of control (TNK2 (human)): 48% | kinase still bound, per cent of control (PRKG1 (human)): 100% | kinase still bound, per cent of control (MYO3A (human)): 12% | kinase still bound, per cent of control (EIF2AK1 (human)): 93% | kinase still bound, per cent of control (STK38 (human)): 60% | kinase still bound, per cent of control (RPS6KA2 KD1 (human)): 48% | kinase still bound, per cent of control (OXSR1 (human)): 80% | kinase still bound, per cent of control (TXK (human)): 3% | kinase still bound, per cent of control (MERTK (human)): 61% | per cent of control (CDKL5 (human)): 100% | kinase still bound, per cent of control (FER (human)): 64%

CCC(=O)N1CCN(c2ccc(-n3c(=O)ccc4cnc5ccc(-c6cnc7ccccc7c6)cc5c43)cc2C(F)(F)F)CC1
kinase still bound, per cent of control (CAMK4 (human)): 90% | kinase still bound, per cent of control (DYRK2 (human)): 86% | kinase still bound, per cent of control (SNRK (human)): 60% | kinase still bound, per cent of control (STK32C (human)): 100% | kinase still bound, per cent of control (NEK2 (human)): 90% | kinase still bound, per cent of control (MUSK (human)): 100% | kinase still bound, per cent of control (BMX (human)): 59% | kinase still bound, per cent of control (LRRK2 (human)): 81% | kinase still bound, per cent of control (MAP2K1 (human)): 100% | kinase still bound, per cent of control (ALK (human)): 80% | per cent of control (CDKL1 (human)): 100% | kinase still bound, per cent of control (INSR (human)): 7.6% | kinase still bound, per cent of control (CSNK2A1 (human)): 94% | kinase still bound, per cent of control (CLK3 (human)): 43% | kinase still bound, per cent of control (RPS6KA4 KD2 (human)): 100% | kinase still bound, per cent of control (STK32A (human)): 100% | kinase still bound, per cent of control (CSK (human)): 71% | kinase still bound, per cent of control (RET (human)): 44% | kinase still bound, per cent of control (PLK4 (human)): 100% | kinase still bound, per cent of control (INSRR (human)): 100% | kinase still bound, per cent of control (EPHB1 (human)): 100% | kinase still bound, per cent of control (PAK1 (human)): 73% | kinase still bound, per cent of control (ERBB2 (human)): 91% | kinase still bound, per cent of control (AKT3 (human)): 77% | kinase still bound, per cent of control [1]: 55% | kinase still bound, per cent of control (MAP2K7 (human)): 100% | kinase still bound, per cent of control (TNIK (human)): 39% | kinase still bound, per cent of control (IRAK1 (human)): 100% | kinase still bound, per cent of control [2]: 0.7% | kinase still bound, per cent of control (CRK2 (P.falciparum)): 97% | kinase still bound, per cent of control (TNK2 (human)): 51% | kinase still bound, per cent of control (PRKG1 (human)): 86% | kinase still bound, per cent of control (MYO3A (human)): 100% | kinase still bound, per cent of control (EIF2AK1 (human)): 57% | kinase still bound, per cent of control (STK38 (human)): 100% | kinase still bound, per cent of control (RPS6KA2 KD1 (human)): 100% | kinase still bound, per cent of control (OXSR1 (human)): 100% | kinase still bound, per cent of control (TXK (human)): 54% | kinase still bound, per cent of control (MERTK (human)): 53% | per cent of control (CDKL5 (human)): 100%
